Assay results as given in ChEMBL document CHEMBL5537119 (Eur J Med Chem, 2024).

Key:
[1] = target: T1, Protein deacetylase HDAC6 (Homo sapiens, UniProt Q9UBN7); assay: Inhibition of human recombinant HDAC6 using Boc-Lys(Ac)-AMC as substrate preincubated for 5 mins followed by substrate addition and measured after 90 mins by fluorescence based microplate reader analysis
T1 sequence (Q9UBN7 whole entry): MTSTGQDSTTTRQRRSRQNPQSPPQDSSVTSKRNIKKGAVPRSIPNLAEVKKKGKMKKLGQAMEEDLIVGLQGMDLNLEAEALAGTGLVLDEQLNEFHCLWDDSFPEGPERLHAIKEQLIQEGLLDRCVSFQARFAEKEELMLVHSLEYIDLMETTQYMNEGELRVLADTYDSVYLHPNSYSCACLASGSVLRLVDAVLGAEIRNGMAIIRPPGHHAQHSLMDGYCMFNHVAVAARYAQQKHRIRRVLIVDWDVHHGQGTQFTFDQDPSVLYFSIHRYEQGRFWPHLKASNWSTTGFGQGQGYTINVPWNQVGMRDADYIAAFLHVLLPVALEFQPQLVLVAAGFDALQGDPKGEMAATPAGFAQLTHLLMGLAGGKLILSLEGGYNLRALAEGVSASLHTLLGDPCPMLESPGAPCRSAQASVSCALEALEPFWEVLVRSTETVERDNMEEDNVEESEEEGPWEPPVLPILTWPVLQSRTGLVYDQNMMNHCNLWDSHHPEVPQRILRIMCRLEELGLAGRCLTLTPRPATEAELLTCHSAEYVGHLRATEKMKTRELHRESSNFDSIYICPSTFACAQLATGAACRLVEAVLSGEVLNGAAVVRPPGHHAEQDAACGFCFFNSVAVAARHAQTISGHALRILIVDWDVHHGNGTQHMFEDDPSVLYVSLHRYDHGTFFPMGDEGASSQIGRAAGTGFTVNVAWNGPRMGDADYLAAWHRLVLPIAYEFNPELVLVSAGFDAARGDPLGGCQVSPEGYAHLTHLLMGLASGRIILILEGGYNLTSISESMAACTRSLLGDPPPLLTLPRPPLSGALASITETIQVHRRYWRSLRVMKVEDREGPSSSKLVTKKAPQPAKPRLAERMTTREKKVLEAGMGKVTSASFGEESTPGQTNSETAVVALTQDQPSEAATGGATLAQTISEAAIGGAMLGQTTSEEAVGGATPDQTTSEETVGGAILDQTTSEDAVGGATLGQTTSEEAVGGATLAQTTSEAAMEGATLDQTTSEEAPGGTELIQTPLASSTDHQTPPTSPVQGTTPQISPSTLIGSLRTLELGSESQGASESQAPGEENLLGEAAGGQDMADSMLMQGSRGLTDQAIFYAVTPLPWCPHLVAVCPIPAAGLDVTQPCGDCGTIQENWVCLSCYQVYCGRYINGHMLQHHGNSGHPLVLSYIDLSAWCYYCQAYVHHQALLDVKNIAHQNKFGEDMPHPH

[2] = target: Histone deacetylase 2 (Homo sapiens, UniProt Q92769); assay: Inhibition of human recombinant HDAC2 using Boc-Lys(Ac)-AMC as substrate preincubated for 5 mins followed by substrate addition and measured after 90 mins by fluorescence based microplate reader analysis
[3] = Inhibition of Class IIa/8 HDAC in human THP-1 cells preincubated for 18 hrs followed by substrate addition and measured after 3 hrs by fluorescence based microplate reader assay; type: cell-based
[4] = tested on: THP-1; assay: cells; settings: Homo sapiens, THP-1, 72 h
Description: Antiproliferative activity against human THP-1 cells assessed as inhibition of cell growth incubated for 72 hrs by MTT assay

[5] = tested on: THP-1; assay: Antiproliferative activity against human THP-1 cells assessed as reduction in cell viability at 100 uM incubated for 72 hrs by MTT assay relative to control; type: functional
[6] = target: Histone deacetylase 4 (Homo sapiens, UniProt P56524); assay: Inhibition of human recombinant TEV-8His-tagged HDAC4 (648 to 1057 residues) expressed in Escherichia coli (DE3) Rosetta cells using Boc-Lys-(Tfa)-AMC as substrate preincubated for 5 mins followed by substrate addition and measured after 90 mins by fluorescence based microplate reader analysis
[7] = target: T2, Histone deacetylase 8 (Homo sapiens, UniProt Q9BY41); assay: Inhibition of human recombinant HDAC8 using Boc-Lys-(Tfa)-AMC as substrate preincubated for 5 mins followed by substrate addition and measured after 90 mins by fluorescence based microplate reader analysis
T2 sequence (Q9BY41 whole entry): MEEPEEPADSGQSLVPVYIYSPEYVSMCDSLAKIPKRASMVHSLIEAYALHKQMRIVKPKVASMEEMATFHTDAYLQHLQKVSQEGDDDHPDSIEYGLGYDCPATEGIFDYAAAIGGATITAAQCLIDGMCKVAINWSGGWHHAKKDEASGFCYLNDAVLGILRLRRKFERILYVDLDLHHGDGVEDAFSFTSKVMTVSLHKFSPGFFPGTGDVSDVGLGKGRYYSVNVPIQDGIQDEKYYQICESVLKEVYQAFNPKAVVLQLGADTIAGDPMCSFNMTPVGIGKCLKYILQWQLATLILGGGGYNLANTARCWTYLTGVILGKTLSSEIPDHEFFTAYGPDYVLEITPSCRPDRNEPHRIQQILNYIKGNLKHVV

[8] = tested on: THP-1; assay: Inhibition of Class IIa/8 HDAC in human THP-1 cells at 100 uM preincubated for 18 hrs followed by substrate addition and measured after 3 hrs by fluorescence based microplate reader assay relative to control; type: cell-based; settings: time 21.0 hrs, values are per cent of control
[9] = Inhibition of Class I/IIb HDAC in human THP-1 cells preincubated for 18 hrs followed by substrate addition and measured after 3 hrs by fluorescence based microplate reader assay; type: cell-based
[10] = tested on: THP-1; assay: Inhibition of Class I/IIb HDAC in human THP-1 cells at 100 uM preincubated for 18 hrs followed by substrate addition and measured after 3 hrs by fluorescence based microplate reader assay relative to control; type: cell-based; settings: time 21.0 hrs
[11] = tested on: CAL-27; assay: Antiproliferative activity against human CAL-27 cells overexpressing HDAC4 assessed as inhibition of cell growth incubated for 72 hrs by MTT assay; type: functional, cell-based; settings: CAL-27, 72 h
[12] = tested on: CAL-27; assay: Antiproliferative activity against human CAL-27 cells without HDAC4 expression assessed as inhibition of cell growth incubated for 72 hrs by MTT assay; type: functional, cell-based; settings: CAL-27, 72 h
[13] = target: Histone deacetylase 3 (Homo sapiens, UniProt O15379); assay: Inhibition of HDAC3 (unknown origin)
[14] = target: T3, Histone deacetylase 11 (Homo sapiens, UniProt Q96DB2); assay: Inhibition of HDAC11 (unknown origin)
T3 sequence (Q96DB2 whole entry): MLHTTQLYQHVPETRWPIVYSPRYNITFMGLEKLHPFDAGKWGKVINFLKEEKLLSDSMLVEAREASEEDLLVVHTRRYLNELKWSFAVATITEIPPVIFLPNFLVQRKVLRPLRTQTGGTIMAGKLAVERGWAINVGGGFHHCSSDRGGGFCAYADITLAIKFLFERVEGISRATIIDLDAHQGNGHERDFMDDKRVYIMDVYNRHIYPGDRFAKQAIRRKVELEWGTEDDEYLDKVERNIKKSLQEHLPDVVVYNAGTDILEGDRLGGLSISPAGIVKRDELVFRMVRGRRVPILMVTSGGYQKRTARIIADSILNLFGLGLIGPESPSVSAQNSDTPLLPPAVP

[15] = target: Histone deacetylase 5 (Homo sapiens, UniProt Q9UQL6); assay: Inhibition of HDAC5 (unknown origin)
[16] = target: Histone deacetylase 1 (Homo sapiens, UniProt Q13547); assay: Inhibition of HDAC1 (unknown origin)
Chain of Histone deacetylase 1 (Q13547 whole entry): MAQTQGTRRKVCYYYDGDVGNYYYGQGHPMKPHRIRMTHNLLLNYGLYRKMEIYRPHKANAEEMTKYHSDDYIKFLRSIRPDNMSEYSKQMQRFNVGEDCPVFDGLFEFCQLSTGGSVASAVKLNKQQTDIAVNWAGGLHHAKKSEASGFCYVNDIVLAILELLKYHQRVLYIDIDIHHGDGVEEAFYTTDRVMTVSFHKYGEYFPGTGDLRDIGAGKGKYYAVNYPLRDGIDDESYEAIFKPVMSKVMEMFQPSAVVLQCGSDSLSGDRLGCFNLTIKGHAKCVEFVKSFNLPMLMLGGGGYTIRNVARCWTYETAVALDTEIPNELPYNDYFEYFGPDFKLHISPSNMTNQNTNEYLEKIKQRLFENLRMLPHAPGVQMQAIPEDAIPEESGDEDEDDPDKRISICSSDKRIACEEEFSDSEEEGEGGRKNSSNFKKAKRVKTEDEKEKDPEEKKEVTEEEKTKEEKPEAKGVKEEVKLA

Chain of Histone deacetylase 4 (P56524 whole entry, the tested form may be a part): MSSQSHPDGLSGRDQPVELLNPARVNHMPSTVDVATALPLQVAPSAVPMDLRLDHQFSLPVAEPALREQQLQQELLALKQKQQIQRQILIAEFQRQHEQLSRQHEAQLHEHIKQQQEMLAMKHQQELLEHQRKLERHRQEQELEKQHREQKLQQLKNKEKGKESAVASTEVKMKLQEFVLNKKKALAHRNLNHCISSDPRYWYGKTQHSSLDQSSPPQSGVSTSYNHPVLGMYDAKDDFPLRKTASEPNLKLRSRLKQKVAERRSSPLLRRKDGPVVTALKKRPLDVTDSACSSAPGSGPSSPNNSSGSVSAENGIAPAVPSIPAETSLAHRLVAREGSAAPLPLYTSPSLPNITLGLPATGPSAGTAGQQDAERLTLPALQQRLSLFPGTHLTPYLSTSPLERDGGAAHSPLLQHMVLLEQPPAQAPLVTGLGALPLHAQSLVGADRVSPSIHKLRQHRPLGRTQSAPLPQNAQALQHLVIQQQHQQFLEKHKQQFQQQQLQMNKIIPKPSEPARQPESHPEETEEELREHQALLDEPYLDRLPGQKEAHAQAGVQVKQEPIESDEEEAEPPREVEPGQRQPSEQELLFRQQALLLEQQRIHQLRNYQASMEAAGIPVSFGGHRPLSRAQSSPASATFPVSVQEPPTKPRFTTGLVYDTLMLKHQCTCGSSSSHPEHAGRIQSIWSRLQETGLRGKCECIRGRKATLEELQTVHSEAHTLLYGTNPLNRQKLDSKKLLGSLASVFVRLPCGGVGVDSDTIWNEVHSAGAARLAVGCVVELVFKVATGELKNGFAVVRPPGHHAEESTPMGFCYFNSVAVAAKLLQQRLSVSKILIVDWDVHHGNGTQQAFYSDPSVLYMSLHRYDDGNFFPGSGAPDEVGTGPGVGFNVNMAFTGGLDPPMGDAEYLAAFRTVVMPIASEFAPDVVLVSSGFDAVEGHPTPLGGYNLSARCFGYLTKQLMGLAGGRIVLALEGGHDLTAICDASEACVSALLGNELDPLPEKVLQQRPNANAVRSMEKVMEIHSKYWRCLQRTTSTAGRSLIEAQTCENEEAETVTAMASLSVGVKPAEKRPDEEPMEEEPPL
Chain of Histone deacetylase 2 (Q92769 whole entry): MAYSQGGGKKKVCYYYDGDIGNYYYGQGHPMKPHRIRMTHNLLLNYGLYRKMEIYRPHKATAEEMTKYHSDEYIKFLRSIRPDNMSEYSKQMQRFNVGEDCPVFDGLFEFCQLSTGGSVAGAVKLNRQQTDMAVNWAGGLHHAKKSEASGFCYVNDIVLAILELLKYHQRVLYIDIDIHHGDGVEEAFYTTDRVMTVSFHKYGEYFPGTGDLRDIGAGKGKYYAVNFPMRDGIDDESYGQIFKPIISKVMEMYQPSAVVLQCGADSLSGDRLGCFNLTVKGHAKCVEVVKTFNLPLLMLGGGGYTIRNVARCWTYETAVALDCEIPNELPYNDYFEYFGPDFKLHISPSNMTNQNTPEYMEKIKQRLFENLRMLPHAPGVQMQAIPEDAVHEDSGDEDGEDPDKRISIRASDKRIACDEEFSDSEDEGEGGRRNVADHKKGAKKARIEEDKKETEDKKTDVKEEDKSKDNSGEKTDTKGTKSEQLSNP
Chain of Histone deacetylase 5 (Q9UQL6 whole entry): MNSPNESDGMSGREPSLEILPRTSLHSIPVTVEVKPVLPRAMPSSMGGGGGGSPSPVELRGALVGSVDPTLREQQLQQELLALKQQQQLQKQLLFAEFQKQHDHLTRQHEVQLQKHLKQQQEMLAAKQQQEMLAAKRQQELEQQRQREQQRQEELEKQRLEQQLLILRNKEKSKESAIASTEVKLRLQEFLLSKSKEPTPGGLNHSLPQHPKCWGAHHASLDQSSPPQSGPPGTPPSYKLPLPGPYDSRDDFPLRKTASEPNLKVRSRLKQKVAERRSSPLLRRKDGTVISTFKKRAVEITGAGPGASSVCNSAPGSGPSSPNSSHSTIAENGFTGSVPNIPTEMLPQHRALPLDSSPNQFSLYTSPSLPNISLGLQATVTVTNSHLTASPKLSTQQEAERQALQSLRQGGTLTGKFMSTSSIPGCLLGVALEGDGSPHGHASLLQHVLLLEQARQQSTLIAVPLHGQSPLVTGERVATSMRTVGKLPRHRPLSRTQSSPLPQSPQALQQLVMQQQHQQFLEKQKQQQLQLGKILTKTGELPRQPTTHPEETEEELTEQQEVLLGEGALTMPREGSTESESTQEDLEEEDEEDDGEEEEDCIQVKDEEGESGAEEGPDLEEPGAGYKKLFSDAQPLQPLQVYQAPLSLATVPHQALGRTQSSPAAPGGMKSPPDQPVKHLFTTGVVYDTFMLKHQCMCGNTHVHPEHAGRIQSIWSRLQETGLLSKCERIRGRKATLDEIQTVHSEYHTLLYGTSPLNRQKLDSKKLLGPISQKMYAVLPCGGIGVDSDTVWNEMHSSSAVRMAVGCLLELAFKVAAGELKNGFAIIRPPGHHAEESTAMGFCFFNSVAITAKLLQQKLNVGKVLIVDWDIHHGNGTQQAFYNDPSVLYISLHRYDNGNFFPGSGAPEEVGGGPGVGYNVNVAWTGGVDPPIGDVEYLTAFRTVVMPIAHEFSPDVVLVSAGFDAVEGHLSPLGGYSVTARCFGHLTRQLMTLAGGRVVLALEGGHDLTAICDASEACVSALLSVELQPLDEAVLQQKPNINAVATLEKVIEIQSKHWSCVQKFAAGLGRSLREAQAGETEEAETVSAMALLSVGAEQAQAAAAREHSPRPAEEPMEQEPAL
Chain of Histone deacetylase 3 (O15379 whole entry): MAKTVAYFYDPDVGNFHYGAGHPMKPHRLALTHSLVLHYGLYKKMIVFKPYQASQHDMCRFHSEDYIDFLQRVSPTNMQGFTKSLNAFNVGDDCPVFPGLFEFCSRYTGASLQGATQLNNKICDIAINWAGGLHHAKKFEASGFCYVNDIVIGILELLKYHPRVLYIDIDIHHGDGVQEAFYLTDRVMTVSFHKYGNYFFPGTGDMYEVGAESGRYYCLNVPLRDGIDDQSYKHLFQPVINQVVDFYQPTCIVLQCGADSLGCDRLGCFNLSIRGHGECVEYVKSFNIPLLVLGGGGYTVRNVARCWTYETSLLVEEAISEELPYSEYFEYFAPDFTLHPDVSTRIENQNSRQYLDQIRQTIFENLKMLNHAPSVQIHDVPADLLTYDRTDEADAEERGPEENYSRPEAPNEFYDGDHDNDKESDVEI

| SMILES | IC50 [1] [µM] | IC50 [2] [µM] | IC50 [3] [µM] | IC50 [4] [µM] | Activity [5] [%] | IC50 [6] [µM] | IC50 [7] [µM] | residual activity [8] [%] | IC50 [9] [µM] | inhibition [10] [%] | IC50 [11] [µM] | IC50 [12] [µM] | IC50 [13] [µM] | IC50 [14] [µM] | IC50 [15] [µM] | IC50 [16] [µM] |
| --- | --- | --- | --- | --- | --- | --- | --- | --- | --- | --- | --- | --- | --- | --- | --- | --- |
| CN(C)c1ccc(CNC(=O)c2ccc(-c3noc(C(F)(F)F)n3)cc2)cc1 | > 100 | > 100 | 5.51 | ~100 | 49 | 0.94 | > 100 | 103 | > 100 | 25 | – | – | – | – | – | – |
| CCN(CC)CCN(C)C(=O)c1ccc(-c2noc(C(F)(F)F)n2)cc1 | 16.9 | 34.8 | 1.27 | > 100 | 31 | 0.198 | 10.8 | 98 | 14 | 65 | – | – | – | – | – | – |
| O=C(NCCc1c[nH]c2ccccc12)c1ccc(-c2noc(C(F)(F)F)n2)cc1 | > 100 | > 100 | 14.5 | ~100 | 49 | 0.69 | > 100 | 97 | – | 64 | – | – | – | – | – | – |
| CN1CCN(C(=O)c2ccc(-c3noc(C(F)(F)F)n3)cc2)CC1 | 55.4 | 80 | 5.51 | > 100 | 39 | 1.18 | 16.1 | 103 | > 100 | 23 | – | – | – | – | – | – |
| O=C(NO)C(c1ccc(-c2ncc(C(F)(F)F)cn2)cc1)c1ccccc1F (configuration not stated) | – | – | – | – | – | – | – | – | – | – | 12.8 | 9.69 | – | – | – | – |
| O=C(Nc1cnc2ccccc2c1)c1ccc(-c2noc(C(F)(F)F)n2)cc1 | > 100 | > 100 | > 100 | 47.3 | 63 | 5.54 | > 100 | 18 | > 100 | 0 | – | – | – | – | – | – |
| O=C(CCCCCCC(=O)Nc1ccccc1)NO [VORINOSTAT] | – | – | – | – | 97 | – | – | – | – | – | – | – | – | – | – | – |
| CCN(CC)CCCCNC(=O)c1ccc(-c2noc(C(F)(F)F)n2)cc1 | 5.61 | 25.4 | 1.17 | ~100 | 47 | 0.139 | 6.72 | 102 | 13.7 | 73 | – | – | – | – | – | – |
| Cc1[nH]c2ccccc2c1CCNCc1ccc(/C=C/C(=O)NO)cc1 [PANOBINOSTAT] | – | – | – | 0.001 | 96 | – | – | – | – | – | – | – | – | – | – | – |
| CN(C(=O)c1ccc(-c2noc(C(F)(F)F)n2)cc1)c1ccccc1 | 19.6 | > 100 | 6.39 | > 100 | 33 | 0.75 | 71.8 | 118 | > 100 | 31 | – | – | – | – | – | – |
| CN(Cc1ccccc1)C(=O)c1ccc(-c2noc(C(F)(F)F)n2)cc1 | 2.03 | 8.13 | 0.54 | > 100 | 34 | 0.025 | > 100 | 117 | 29.1 | 78 | – | – | 6.86 | > 100 | 0.154 | 14.6 |
| O=C(NOCCN1CCOCC1)c1ccc(-c2noc(C(F)(F)F)n2)cc1 | 18.1 | 9.77 | 0.429 | ~100 | 47 | 0.141 | 7.13 | 100 | > 100 | 41 | – | – | 2.36 | > 100 | 0.151 | 2.21 |
